The source of these data is US9988268B2, “Preparation of 2,6- and 2,7-disubstituted anthraquinone derivatives” (BASF SE, priority 2014, dated 2018).

In brackets after ≈: the same amount, converted by molar mass. Where two headings read alike, the source gives them in different places.

This data set in a line: Determination of the solubility of anthraquinone derivatives in xylene/diisobutylcarbinol. The format is physicochemical. The settings on record: for solubility: mixture of xylene (50 volume-%) and diisobutylcarbinol (50 volume-%), 22° C.; for Solubility (in words): xylene/diisobutylcarbinol solvent system, comparison of anthraquinone derivatives. The method, then: 0.06 ml of a mixture of xylene (50 volume-%) and diisobutylcarbinol (50 volume-%) were added to 1 g of the respective anthraquinone derivative at 22° C. every 60 seconds until the anthraquinone derivative was dissolved completely.

In the case of `Cc1cc2c(cc1C)C(=O)c1cc(C)c(C)cc1C2=O` [Comparative Example 6, 2,3,6,7-tetramethylanthracene-9,10-dione], the solubility entry is on record as “insoluble” and the “Solubility (in words)” value is “insoluble”.

On to `CCc1ccc2c(c1)C(=O)c1ccccc1C2=O` [2-ethylanthraquinone], for which the “Solubility (in words)” value is “poorly soluble”. Besides, the solubility (xylene/diisobutylcarbinol mixture (50:50 by volume), organic solvent or mixture, thermodynamic from solid, read-out: Solubility) turned out to be 270 mM (≈ 63.8 mg/mL).

As a reminder, the solubility is the concentration that dissolves in the medium under given conditions.
